Experimental data taken from US10004722B2, “Method for treating hepatic encephalopathy or a disease associated with free radical mediate stress and oxidative stress with novel functionalized 1,3-benzene diols” (KANNALIFE SCIENCES, INC., priority 2014, dated 2018).
Where “and” joins values, the source holds several entries; their conditions need not be identical. Identical values can stand only once. Like-named read-outs stand apart in the source and are kept apart here.

How the values were obtained:
hippocampal cultures [1] = experiment: cells; type: cell-based; conditions: Rattus norvegicus, 30 mM ethanol, propidium iodide, read-out: NP from Ethanol PI EC50
Source text: Cell cultures: All compounds were screened with dissociated hippocampal cultures derived from embryonic day 18 rats as the primary test system. With this preparation, primary neurons were used to test for toxicity as well as neuroprotection in a highly relevant experimental system to hepatic encephalopathy (HE). In brief, hippocampal tissue was obtained commercially through Brain Bits (Springfield, Ill.) and cultures prepared as previously described (Brewer, 1995). The hippocampal neurons were platted at low density (10,000 cell/well) in a 96-well format and maintained in serum-free medium consisting of Neurobasal Medium supplemented with B27 and GlutaMAX (Gibco). […]
These studies use phenotypic assays of neuroprotection because the molecular target(s) mediating the action of cannabidiol-like protecting substances is unknown. […] Further, all time parameters employed in these studies were empirically determined to be within the limits of reversible toxic events after treatment with cannabidiol (Hamelink et al., 2005) and cannabidiol-like substances, yet using amounts of ethanol (30 mM) and ammonia (300 μM ammonium acetate) that were relevant to the disease. […]
Carboxyfluorescein (CFDA) was used a vital stain for all neuroprotection studies. […] The test agents were evaluated with the two assays during a 5 hour test period. […]

hippocampal cultures [2] = experiment: Neuroprotection from 30 mM ethanol, CFDA assay; type: cell-based; conditions: Rattus norvegicus, read-out: NP from Ethanol CFDA EC50
Experimental: Cell cultures: All compounds were screened with dissociated hippocampal cultures derived from embryonic day 18 rats as the primary test system. […] The hippocampal neurons were platted at low density (10,000 cell/well) in a 96-well format and maintained in serum-free medium consisting of Neurobasal Medium supplemented with B27 and GlutaMAX (Gibco).
The effective working concentration of ethanol that was empirically determined to produce toxicity in the hippocampal cultures was 30 mM.
Carboxyfluorescein (CFDA) was used a vital stain for all neuroprotection studies. With the use of the CytoFluor fluorimeter, the CFDA assay was employed to assess the viability of neurons. […] Cultures were treated within the period of culture vulnerability for toxins relevant to HE: between days 11 and 22 after cell plating. The test agents were evaluated with the two assays during a 5 hour test period. For all assays, a 96-well format was used. […] Cultures were given a complete change of medium prior to the initiation of the treatment period.
A compound of the disclosure was added to the hippocampal cultures for a five hour period. Compounds were tested from 10 nM to 100 μM. At the conclusion of the test period, the cultures were tested for the amount of neuronal viability by the CFDA method. […]

hippocampal cultures [3] = experiment: cells; type: cell-based; conditions: Rattus norvegicus, 300 μM ammonium acetate, propidium iodide, read-out: NP from AmAc PI EC50
Source text: (§1) Cell cultures: All compounds were screened with dissociated hippocampal cultures derived from embryonic day 18 rats as the primary test system. With this preparation, primary neurons were used to test for toxicity as well as neuroprotection in a highly relevant experimental system to hepatic encephalopathy (HE). In brief, hippocampal tissue was obtained commercially through Brain Bits (Springfield, Ill.) and cultures prepared as previously described (Brewer, 1995). The hippocampal neurons were platted at low density (10,000 cell/well) in a 96-well format and maintained in serum-free medium consisting of Neurobasal Medium supplemented with B27 and GlutaMAX (Gibco). Pre-coated poly-D-lysine coated plates will be used because of the adherence and survival of hippocampal neurons and glia on this matrix support.
(§2) The central objective of all neuroprotective assays was their relevancy to oxidative stress related to HE and other or diseases associated with oxidative stress in general. These studies use phenotypic assays of neuroprotection because the molecular target(s) mediating the action of cannabidiol-like protecting substances is unknown. Both the amount of ethanol and ammonia used in the assays, as well as the time of treatment and duration of the experiment, were designed to be relevant to HE (Ong et al, 2003). […]

hippocampal cultures [4] = experiment: Neuroprotection from 300 μM ammonium acetate, CFDA assay; type: cell-based; conditions: Rattus norvegicus, read-out: NP from AmAc CFDA EC50
Source text: as §1, §2

hippocampal cultures [5] = experiment: Neuroprotection from 30 mM ethanol plus 300 μM ammonium acetate, propidium iodide (PI) assay; type: cell-based; conditions: Rattus norvegicus, read-out: NP from ethanol + AmAc PI EC50
Source text: as §1, §2

hippocampal cultures [6] = experiment: Neuroprotection from 30 mM ethanol plus 300 μM ammonium acetate, CFDA assay; type: cell-based; conditions: Rattus norvegicus, read-out: NP from ethanol + AmAc CFDA EC50
Source text: as §1, §2

[7] = Pharmacokinetic profile after an IV dose in CD1 mice; type: in vivo
Experimental: (§3) The pharmacokinetic profile of compounds of the disclosure are determined in CD1 mice by administering IV and PO doses of the compounds of the disclosure to the CD1 mice. Plasma samples are drawn at 0.083, 0.25, 0.5, 1.0, 2.0, 4.0, 8.0, and 24 hours to determine the plasma concentration of the compounds of the disclosure. Brain and CSF samples were collected at 0.25 hours, 2 hours, and 8 hours post dosing. IV doses were prepared as solutions in 5% Dimethylacetamide (DMAC), 5% Solutol HS 15 and 90% Saline at 0.4 mg/mL PO doses were prepared as solutions in 5% Dimethylacetamide (DMAC), 5% Solutol HS 15 and 90% Saline at 1 mg/mL. Experimental results for exemplary compounds of the disclosure are described in tables 6-9 and FIGS. 1 and 2.

in vivo = experiment: in vivo; parameters: species or system CD1 mice
Experimental: as §3

[8] = CD1, mouse, in vivo, iv, 2 mg/kg
[9] = CD1, mouse, in vivo, po, 10 mg/kg
[10] = PO 10 mg/kg, CD1 mice, 0.25 hr, listed as KLS-13019, 10 mg/kg
[11] = PO 10 mg/kg, CD1 mice, 2 hr, listed as KLS-13019, 10 mg/kg

Compound `C=C(C)[C@@H]1CCC(C)=C[C@H]1c1c(O)cc(CC2CN(C(=O)OCC)C2)cc1O` [Example 3, ethyl 3-(3,5-dihydroxy-4-((1R,6R)-3-methyl-6-(prop-1-en-2-yl)cyclohex-2-enyl)benzyl)azetidine-1-carboxylate] has an EC50 (hippocampal cultures [1]) of 20 nM, an EC50 (hippocampal cultures [2]) of 30 nM and an EC50 (hippocampal cultures [3]) of 50 nM. The EC50 (hippocampal cultures [4]) was 105 nM, the EC50 (hippocampal cultures [5]) was 61 nM and the EC50 (hippocampal cultures [6]) was 87 nM.
`C=C(C)[C@@H]1CCC(C)=C[C@H]1c1c(O)cc(CC2CN(C(C)=O)C2)cc1O` [Example 2, 1-(3-(3,5-dihydroxy-4-((1R,6R)-3-methyl-6-(prop-1-en-2-yl)cyclohex-2-enyl)benzyl)azetidin-1-yl)ethanone] gave an EC50 (hippocampal cultures [1]) of 46 nM, an EC50 (hippocampal cultures [2]) of 175 nM and an EC50 (hippocampal cultures [3]) of 38 nM. The EC50 (hippocampal cultures [4]) was 61 nM, the EC50 (hippocampal cultures [5]) was 203 nM and the EC50 (hippocampal cultures [6]) was 127 nM. It also gave an AUC(0-inf) [7, 8] of 440 ng·h/mL, an AUC(0-t) [7, 8] of 431 ng·h/mL and an MRT inf [7, 8] of 0.702 h. It also gave a Vd [7, 8] of 3.19 L/kg, a clearance [7, 8] of 75.8 mL/min/kg and a half-life ([7]; mouse, plasma, IV 2 mg/kg, CD1 mice, read-out: Terminal t1/2 (converted)) of 3.24 h. For the same compound, the Tmax (in vivo; [9]) was 0.25 h, the half-life (in vivo; [9]) was 5.31 h and the concentration at 0.25 h (in vivo; CD1, mouse, in vivo, po, 10 mg/kg, PO 10 mg/kg, CD1 mice, 0.25 hr, read-out: Brain concentration, mean) was 469 ng/mL. For the same compound, the Kp at 0.25 h (in vivo; CD1, mouse, in vivo, po, 10 mg/kg, PO 10 mg/kg, CD1 mice, 0.25 hr, read-out: Brain/Plasma (%), individual) was 0.801, the Kp at 0.25 h (in vivo; CD1, mouse, in vivo, po, 10 mg/kg, PO 10 mg/kg, CD1 mice, 0.25 hr, read-out: Brain/Plasma (%), mean) was 0.821 and the concentration at 0.25 h (in vivo; CD1, mouse, in vivo, po, 10 mg/kg, PO 10 mg/kg, CD1 mice, 0.25 hr, read-out: CSF concentration, mean) was 8.95 ng/mL. The Kp at 0.25 h (in vivo; CD1, mouse, in vivo, po, 10 mg/kg, PO 10 mg/kg, CD1 mice, 0.25 hr, read-out: CSF/Plasma (%), individual) was 0.0179, the Kp at 0.25 h (in vivo; CD1, mouse, in vivo, po, 10 mg/kg, PO 10 mg/kg, CD1 mice, 0.25 hr, read-out: CSF/Plasma (%), mean) was 0.0155 and the concentration at 2 h (in vivo; CD1, mouse, in vivo, po, 10 mg/kg, PO 10 mg/kg, CD1 mice, 2 hr, read-out: Brain concentration, mean) was 126 ng/mL. The Kp at 2 h (in vivo; CD1, mouse, in vivo, po, 10 mg/kg, PO 10 mg/kg, CD1 mice, 2 hr, read-out: Brain/Plasma (%), individual) was 1.15, the Kp at 2 h (in vivo; CD1, mouse, in vivo, po, 10 mg/kg, PO 10 mg/kg, CD1 mice, 2 hr, read-out: Brain/Plasma (%), mean) was 1.17 and the concentration at 2 h (in vivo; CD1, mouse, in vivo, po, 10 mg/kg, PO 10 mg/kg, CD1 mice, 2 hr, read-out: CSF concentration, mean) was 2.65 ng/mL. The Kp at 2 h (in vivo; CD1, mouse, in vivo, po, 10 mg/kg, PO 10 mg/kg, CD1 mice, 2 hr, read-out: CSF/Plasma (%), individual) was 0.0255, the Kp at 2 h (in vivo; CD1, mouse, in vivo, po, 10 mg/kg, PO 10 mg/kg, CD1 mice, 2 hr, read-out: CSF/Plasma (%), mean) was 0.0291 and the F (in vivo; CD1, mouse, po, 10 mg/kg) was 67.1%. The Tmax (in vivo; CD1, mouse, po, 10 mg/kg) was 0.25 h, the half-life (in vivo; CD1, mouse, po, 10 mg/kg) was 5.36 h and the “Brain/CSF, mean” value (in vivo; PO 10 mg/kg, CD1 mice, 0.25 hr) was 53.5. The “Brain/CSF, individual” value (in vivo; [10]) was 44.7 and 61.3 and 54.6, the “Brain/Plasma (%), individual” value (in vivo; [10]) was 87.4% and 78.7% and the “CSF/Plasma (%), individual” value (in vivo; [10]) was 1.42% and 1.44%. For the same compound, the “Brain/CSF, mean” value (in vivo; PO 10 mg/kg, CD1 mice, 2 hr) was 43.7, the “Brain/CSF, individual” value (in vivo; [11]) was 45.0 and 60.3 and 25.9 and the “Brain/Plasma (%), individual” value (in vivo; [11]) was 136% and 101%. The “CSF concentration, individual” value (in vivo; [11]) was 3.60 ng/mL and 3.00 ng/mL and 1.35 ng/mL, the “CSF/Plasma (%), individual” value (in vivo; [11]) was 2.26% and 3.91% and the “Brain concentration, individual” value (in vivo; PO 10 mg/kg, CD1 mice, 8 hr) was “BQL”. For the same compound, the “Brain concentration, mean” value (in vivo; PO 10 mg/kg, CD1 mice, 8 hr) was “BQL”, the “Brain/Plasma (%), mean” value (in vivo; PO 10 mg/kg, CD1 mice, 8 hr) was “BQL” and the “CSF concentration, individual” value (in vivo; PO 10 mg/kg, CD1 mice, 8 hr) was “BQL”. The “CSF concentration, mean” value (in vivo; PO 10 mg/kg, CD1 mice, 8 hr) was “BQL” and the “CSF/Plasma (%), mean” value (in vivo; PO 10 mg/kg, CD1 mice, 8 hr) was “BQL”.
